# Tests used:
# COR-L23 cells = experiment: In vitro cytotoxicity (MTT assay), COR-L23; assay type: cell-based; details: 50% decrease in cell viability
# Method: (§1) The in vitro cytotoxicity of the polyamidoamine-platinum compounds was evaluated using the MTT assay described above and in Example 5.
# (§2) The cell lines used, L132 (human embryonic lung cells), COR L23 (non-small cell lung cancer cells) and H69 (small cell lung cancer), were obtained from European Collection of Cell Cultures, Centre for Applied Biology, Microbiology and Research, Salisbury, Wiltshire UK.
# (§3) Cells were cultured using standard conditions in microtitre plates.
# H69 cells = experiment: In vitro cytotoxicity (MTT assay), H69 small cell lung carcinoma; assay type: cell-based; details: 50% decrease in cell viability
# Method: as §1, §2, §3
# L132 cells = experiment: In vitro cytotoxicity (MTT assay), L132; assay type: cell-based, human; details: 50% decrease in cell viability
# Method: as §1, §2, §3
# [1] = tested on: L1210 intraperitoneal tumor; experiment: L1210 i.p. tumor model in mice (survival and toxic deaths); assay type: in vivo, mice (DBA2)
# Method: The data in Table 3 is expressed as the ratio of the mean survival time of treated animals to the mean survival time of the untreated control animals×100 (T/C).
# 10^6 viable cells were administered to DBA2 mice (male 9-12 weeks, 20-30 g) i.p. on day 0. […] Animals were weighed daily and observed twice a day for signs of tumor progression and sacrificed if their body weight fell below 80% of the starting weight or if other severe toxicological problems were seen. At the end of the experiment changes in gross anatomy were noted.
# [2] = background; cited from earlier work
# [3] = tested on: B16 melanoma intraperitoneal tumor; experiment: B16 melanoma i.p. tumor model in mice (survival, toxic deaths, body weight); assay type: in vivo, mice (C57BL/6J); details: single i.p. dose
# From the text: Male C57BL/6J mice were inoculated with 10^6 viable B16F10 cells intraperitoneally (i.p). […] Animals were monitored as described above.
compound,measurement,setting,value
"N.N.[Cl][Pt][Cl] [Cisplatin, Cis-diamminedichloroplatinum(II)]","IC50, COR-L23",COR-L23 cells,7.38 ± 2.78 mg/L
same,"IC50, H-69",H69 cells,45.9 ± 20 mg/L
same,"IC50, L132",L132 cells,4.80 ± 1.29 mg/L
same,T/C (mean survival time treated/control × 100),[1]; 2 mg/kg Pt,171
same,T/C (mean survival time treated/control × 100),[1]; 3 mg/kg Pt,64
same,"excretion, in words",[2],rapid excretion via the kidneys
same,T/C,[3]; 5 mg/kg Pt,134
same,T/C,[3]; 10 mg/kg Pt,78

# From US5985916A, “Polymer-platinum compounds” (Access Pharmaceuticals, Inc., priority 1998, dated 1999)
